Consider 16 compounds from patent publication US20160095843A1, “PYRAZOLOPYRROLIDINE DERIVATIVES AND THEIR USE IN THE TREATMENT OF DISEASE” (NOVARTIS AG, priority 2013, published 2016).

Like-named read-outs stand apart in the source and are kept apart here.

One assay relates to K-562 cells. In words: Cell growth inhibition assay (CellTiter-Glo), K-562. The class given is cell-based, human. In outline:
(§1)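 Leukemia lines grown in their own media were exposed for 4 days at 37° C. to 3-fold serial dilutions from 10 μM (0.1% DMSO). Viability by CellTiter-Glo ATP luminescence, corrected for background and day-0 plate; IC50 and TGI from four-parameter fit against vehicle (100%) and medium (−100%).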
For orientation: Cellular ATP, detected with luciferase, serves as a proxy for viable cell number.

For a further assay, the system named is MV-4-11 cells. In words: Cell growth inhibition assay (CellTiter-Glo), MV-4-11. The class given is cell-based. The following applies: Homo sapiens, MV4-11. The gist of the method: as §1
Another assay deals with THP-1 cells. Briefly: Cell growth inhibition assay (CellTiter-Glo), THP-1. In kind it is cell-based. Conditions: Homo sapiens. In outline:
as §1

For the compound `CCc1nn(CCO)c2c1C(c1ccc(Cl)cc1)N(c1cc(C)c(=O)n(C)c1)C2=O` (centres unmarked) [Example 78, 4-(4-chlorophenyl)-5-(1,5-dimethyl-6-oxo-1,6-dihydropyridin-3-yl)-3-ethyl-1-(2-hydroxyethyl)-4,5-dihydropyrrolo-[3,4-c]pyrazol-6(1H)-one], the GI50 in the assay on K-562 cells (Homo sapiens, K562) is 392 nM; in the assay on MV-4-11 cells, 52 nM; in the assay on THP-1 cells it was 85.4 nM.

Consider `Cc1cc(N2C(=O)c3c(cnn3C(C)C)C2c2ccc(Cl)cc2)cn(C)c1=O` (centres unmarked) [Example 36, 4-(4-chlorophenyl)-5-(1,5-dimethyl-6-oxo-1,6-dihydropyridin-3-yl)-1-isopropyl-4,5-dihydropyrrolo-[3,4-c]pyrazol-6(1H)-one], for which the GI50 came out at 430 nM in the assay on K-562 cells (Homo sapiens, K562); 53.4 nM in the assay with MV-4-11 cells; 103 nM in the assay with THP-1 cells.

For the compound `Cc1nn(C(=O)N(C)C)c2c1[C@@H](c1ccc(Cl)cc1)N(c1cc(C)c3nnc(C)n3c1)C2=O` [Example 149, (R)-4-(4-chlorophenyl)-5-(3,8-dimethyl-[1,2,4]triazolo[4,3-a]pyridin-6-yl)-N,N,3-trimethyl-6-oxo-5,6-dihydropyrrolo-[3,4-c]pyrazole-1(4H)-carboxamide], the GI50 in the assay with K-562 cells (Homo sapiens, K562) is 348 nM; in the assay with MV-4-11 cells, 28 nM; with THP-1 cells it was 68.8 nM.

As to `CNC(=O)n1nc(C)c2c1C(=O)N(c1cc(C)c(=O)n(C)c1)C2c1ccc(Cl)cc1` (centres unmarked) [Example 143, 4-(4-chlorophenyl)-5-(1,5-dimethyl-6-oxo-1,6-dihydropyridin-3-yl)-N,3-dimethyl-6-oxo-5,6-dihydropyrrolo-[3,4-c]pyrazole-1(4H)-carboxamide], the GI50 in the assay with K-562 cells (Homo sapiens, K562) came out at 1200 nM; in the assay on MV-4-11 cells, 86 nM; in the assay on THP-1 cells, 300 nM.

Consider `CCc1nn(C2CC2)c2c1C(c1ccc(Cl)cc1)N(c1cc(OC)c3nnc(C)n3c1)C2=O` (centres unmarked) [Example 84, 4-(4-chlorophenyl)-1-cyclopropyl-3-ethyl-5-(8-methoxy-3-methyl-[1,2,4]triazolo[4,3-a]pyridin-6-yl)-4,5-dihydropyrrolo-[3,4-c]pyrazol-6(1H)-one], for which the GI50 was 384 nM in the assay on K-562 cells (Homo sapiens, K562); 58.3 nM in the assay on MV-4-11 cells; 86.9 nM in the assay on THP-1 cells.

Turning to `CCc1nn(-c2ccnn2C)c2c1C(c1ccc(Cl)cc1)N(c1cc(C)c(=O)n(C)c1)C2=O` (centres unmarked) [Example 89, 4-(4-chlorophenyl)-5-(1,5-dimethyl-6-oxo-1,6-dihydropyridin-3-yl)-3-ethyl-1-(1-methyl-1H-pyrazol-5-yl)-4,5-dihydropyrrolo-[3,4-c]pyrazol-6(1H)-one], the GI50 is 442 nM in the assay with K-562 cells (Homo sapiens, K562); 46.5 nM with MV-4-11 cells; 40.6 nM with THP-1 cells.

For the compound `Cc1nn(C2CC2)c2c1C(c1ccc(Cl)cc1)N(c1cc(C)c3nnc(C)n3c1)C2=O` (centres unmarked) [Example 92, 4-(4-chlorophenyl)-1-cyclopropyl-5-(3,8-dimethyl-[1,2,4]triazolo[4,3-a]pyridin-6-yl)-3-methyl-4,5-dihydropyrrolo-[3,4-c]pyrazol-6(1H)-one], the GI50 in the assay on K-562 cells (Homo sapiens, K562) was determined as 65 nM; in the assay on MV-4-11 cells, 10.9 nM; in the assay with THP-1 cells, 19.2 nM.

With `COCc1nn(C2CC2)c2c1[C@@H](c1ccc(Cl)cc1)N(c1cc(C)c3nnc(C)n3c1)C2=O` [Example 163, (R)-4-(4-chlorophenyl)-1-cyclopropyl-5-(3,8-dimethyl-[1,2,4]triazolo[4,3-a]pyridin-6-yl)-3-(methoxymethyl)-4,5-dihydropyrrolo-[3,4-c]pyrazol-6(1H)-one], the GI50 with K-562 cells (Homo sapiens, K562) stood at 79.8 nM; in the assay on MV-4-11 cells, 10.3 nM; in the assay on THP-1 cells, 17.5 nM.

In the assay with K-562 cells, `Cc1nn(C2CC2)c2c1[C@@H](c1ccc(Cl)cc1)N(c1cc(C)c3nnc(C)n3c1)C2=O` [Example 119, (R)-4-(4-chlorophenyl)-1-cyclopropyl-5-(3,8-dimethyl-[1,2,4]triazolo[4,3-a]pyridin-6-yl)-3-methyl-4,5-dihydropyrrolo-[3,4-c]pyrazol-6(1H)-one] had an IC (TGI) above 10000 nM. Besides, the GI50 with K-562 cells (Homo sapiens, K562) is 62 nM; in the assay with MV-4-11 cells, 6.15 nM; in the assay with THP-1 cells, 9.45 nM.

With `Cc1cc(N2C(=O)c3nn(C(C)C)c(C)c3C2c2ccc(F)cc2F)cn2c(C)nnc12` (centres unmarked) [Example 175, 4-(2,4-difluorophenyl)-5-(3,8-dimethyl-[1,2,4]triazolo[4,3-a]pyridin-6-yl)-2-isopropyl-3-methyl-4,5-dihydropyrrolo-[3,4-c]pyrazol-6(2H)-one], the GI50 in the assay on K-562 cells (Homo sapiens, K562) was determined as 192 nM; with MV-4-11 cells, 42.2 nM; in the assay on THP-1 cells, 66.2 nM.

In the case of `COc1ncccc1-n1nc(C)c2c1C(=O)N(c1cc(Cl)c(=O)n(C)c1)C2c1ccc(Cl)cc1` (centres unmarked) [Example 72, 5-(5-chloro-1-methyl-6-oxo-1,6-dihydropyridin-3-yl)-4-(4-chlorophenyl)-1-(2-methoxypyridin-3-yl)-3-methyl-4,5-dihydropyrrolo[3,4-c]pyrazol-6(1H)-one], the GI50 was 766 nM in the assay on K-562 cells (Homo sapiens, K562); 100 nM in the assay on MV-4-11 cells; 223 nM with THP-1 cells.

With `Cc1cc(N2C(=O)c3c(c(CO)nn3C3CC3)[C@H]2c2ccc(Cl)cc2)cn2c(C)nnc12` [Example 166, (R)-4-(4-chlorophenyl)-1-cyclopropyl-5-(3,8-dimethyl-[1,2,4]triazolo[4,3-a]pyridin-6-yl)-3-(hydroxymethyl)-4,5-dihydropyrrolo-[3,4-c]pyrazol-6(1H)-one], the GI50 in the assay on K-562 cells (Homo sapiens, K562) is 94.6 nM; in the assay on MV-4-11 cells it was 9.38 nM; in the assay on THP-1 cells it was 17.1 nM.

As to `Cc1cc(N2C(=O)c3nn(C4CN(C)C4)c(C)c3C2c2ccc(Cl)cc2)cn2c(C)nnc12` (centres unmarked) [Example 158, 4-(4-chlorophenyl)-5-(3,8-dimethyl-[1,2,4]triazolo[4,3-a]pyridin-6-yl)-3-methyl-2-(1-methylazetidin-3-yl)-4,5-dihydropyrrolo-[3,4-c]pyrazol-6(2H)-one], the GI50 in the assay on K-562 cells (Homo sapiens, K562) worked out at 484 nM; with MV-4-11 cells it was 26.6 nM; in the assay on THP-1 cells, 142 nM.

In the assay on K-562 cells, `CCc1nn(C2CC2)c2c1[C@@H](c1ccc(Cl)cc1)N(c1cc(C)c3nnc(C)n3c1)C2=O` [Example 107, (R)-4-(4-chlorophenyl)-1-cyclopropyl-5-(3,8-dimethyl-[1,2,4]triazolo[4,3-a]pyridin-6-yl)-3-ethyl-4,5-dihydropyrrolo-[3,4-c]pyrazol-6(1H)-one] yielded an IC (TGI) above 10000 nM. Besides, the GI50 with K-562 cells (Homo sapiens, K562) was found to be 37.9 nM; in the assay on MV-4-11 cells, 7.28 nM; in the assay on THP-1 cells it was 8.18 nM.

With `Cc1cc(N2C(=O)c3c(cnn3C3CC3)C2c2ccc(Cl)cc2)cn(C)c1=O` (centres unmarked) [Example 34, 4-(4-chlorophenyl)-1-cyclopropyl-5-(1,5-dimethyl-6-oxo-1,6-dihydropyridin-3-yl)-4,5-dihydropyrrolo[3,4-c]pyrazol-6(1H)-one], the GI50 with K-562 cells (Homo sapiens, K562) amounted to 601 nM; in the assay on MV-4-11 cells it was 82.8 nM; in the assay on THP-1 cells it was 162 nM.

`Cc1nn(-c2ccnn2C)c2c1C(c1ccc(Cl)cc1)N(c1cc(C)c(=O)n(C)c1)C2=O` (racemic) [Example 74, 4-(4-chlorophenyl)-5-(1,5-dimethyl-6-oxo-1,6-dihydropyridin-3-yl)-3-methyl-1-(1-methyl-1H-pyrazol-5-yl)-4,5-dihydropyrrolo-[3,4-c]pyrazol-6(1H)-one]: the GI50 in the assay on K-562 cells (Homo sapiens, K562) is 459 nM; with MV-4-11 cells it was 95.8 nM; in the assay with THP-1 cells it was 142 nM. Also, the IC (TGI) in the assay on K-562 cells (Homo sapiens, K562) is above 10000 nM; in the assay with MV-4-11 cells, 103 nM; in the assay on THP-1 cells it was 327 nM.

One may read the GI50 as the concentration that inhibits growth by half. Higher therefore signals less potent growth inhibition.
